These results are taken from patent US20140045746A1 (Merck Sharp & Dohme Corp., priority 2012, published 2014).

≈ marks a conversion by molar mass, not a printed value.

A short description of one data set: Solubility in PBS pH 7. It is filed as physicochemical. Conditions: aqueous buffer; pH 7, PBS.
Data set [1] concerns the target T1, hGPR40 (Homo sapiens, UniProt O14842). In words: GPR40 Inositol Phosphate Turnover (IP1) Assay. It is filed as cell-based. On the set-up: expressed in transfected cells; host or cells: HEK cells stably expressing the aequorin reporter.
Data set [2] concerns the target KV11.1 ion channel (hERG) (Homo sapiens, UniProt Q12809). The data set can be described thus: Binding to ion channel Kv11.1 (hERG). For orientation: The hERG channel carries a current that helps repolarise heart muscle cells.
In data set [3] the target is T1, hGPR40. The data set can be described thus: GPR40 FLIPR assay (agonist-induced calcium mobilization).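 Further: calcium mobilization in the cells read as fluorescence of fluo-4 AM loaded cells on FLIPR after compound addition, cells preloaded with dye 100 min at room temperature.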 The class given is cell-based. More on the design: expressed in transfected cells; host or cells: CHO cells stably expressing NFAT BLA (beta-lactamase). Conditions: GPR40/CHO NFAT BLA cells. For orientation: Calcium flux is commonly read through the fluorescence of an indicator in the cells.
Protocol: Human and mouse GPR40 stable cell-lines were generated in CHO cells stably expressing NFAT BLA (Beta-lactamase). […] The expression plasmids were transfected using lipofectamine (Life Technologies) following manufacturer's instructions. Stable cell-lines were generated following drug selection.
FLIPR (Fluorimetric Imaging Plate Reader, Molecular Devices) assays were performed to measure agonist-induced calcium mobilization of the stable clones. For the FLIPR assay, one day before assay, GPR40/CHO NFAT BLA cells were seeded into black-wall-clear-bottom 384-well plates (Costar) at 1.4×10e4 cells/20 μL medium/well. The cells were incubated with 20 μl/well of the assay buffer (HBSS, 0.1% BSA, 20 mM HEPES, 2.5 mM probenecid, pH 7.4) containing 8 μM fluo-4, AM, 0.08% pluronic acid at room temperature for 100 minutes. Fluorescence output was measured using FLIPR. Compounds were dissolved in DMSO and diluted to desired concentrations with assay buffer. 13.3 μL/well of compound solution was added.

Where [4] appears, read: +0% human serum (Table A), read-out: Human GPR40 IP1, EC50, +0% human serum.
Where [5] appears, read: +100% human serum (Table A), read-out: Human GPR40 IP1, EC50, +100% human serum.
[6] abbreviates: HEK cells stably expressing human GPR40, 0% serum, read-out: hGPR40 IP1 EC50 (0% serum).

KV11.1 ion channel (hERG), sequence (Q12809 whole entry): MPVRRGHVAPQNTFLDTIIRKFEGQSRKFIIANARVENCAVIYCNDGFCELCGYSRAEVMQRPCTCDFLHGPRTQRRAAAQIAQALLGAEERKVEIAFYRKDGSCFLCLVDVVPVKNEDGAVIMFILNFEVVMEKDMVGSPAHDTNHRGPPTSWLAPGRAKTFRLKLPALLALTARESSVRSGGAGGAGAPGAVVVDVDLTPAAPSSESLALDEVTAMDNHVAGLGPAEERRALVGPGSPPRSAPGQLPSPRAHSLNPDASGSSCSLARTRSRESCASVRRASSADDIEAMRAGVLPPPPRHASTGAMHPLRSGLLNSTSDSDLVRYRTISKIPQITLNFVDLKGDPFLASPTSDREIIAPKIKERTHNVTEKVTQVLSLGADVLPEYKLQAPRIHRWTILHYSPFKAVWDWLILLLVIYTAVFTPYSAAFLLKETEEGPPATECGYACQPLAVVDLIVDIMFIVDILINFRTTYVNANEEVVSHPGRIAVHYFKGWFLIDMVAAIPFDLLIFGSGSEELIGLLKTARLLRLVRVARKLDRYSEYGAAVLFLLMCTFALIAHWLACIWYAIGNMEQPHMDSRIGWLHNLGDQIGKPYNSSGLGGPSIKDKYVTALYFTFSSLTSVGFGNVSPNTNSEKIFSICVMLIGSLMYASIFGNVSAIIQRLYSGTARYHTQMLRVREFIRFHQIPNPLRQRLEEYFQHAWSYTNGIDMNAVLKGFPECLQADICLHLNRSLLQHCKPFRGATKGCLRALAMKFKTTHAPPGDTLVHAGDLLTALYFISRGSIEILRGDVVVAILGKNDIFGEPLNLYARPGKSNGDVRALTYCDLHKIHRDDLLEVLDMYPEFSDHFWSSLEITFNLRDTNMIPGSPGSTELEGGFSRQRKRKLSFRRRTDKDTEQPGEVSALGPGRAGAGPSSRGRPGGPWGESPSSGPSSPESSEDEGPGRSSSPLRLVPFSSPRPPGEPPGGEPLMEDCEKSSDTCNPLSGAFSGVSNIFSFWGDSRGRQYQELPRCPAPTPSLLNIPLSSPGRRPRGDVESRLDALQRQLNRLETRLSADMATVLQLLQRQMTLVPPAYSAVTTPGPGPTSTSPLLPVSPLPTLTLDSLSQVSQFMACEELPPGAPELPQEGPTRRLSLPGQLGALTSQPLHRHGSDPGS
T1 sequence (O14842 whole entry): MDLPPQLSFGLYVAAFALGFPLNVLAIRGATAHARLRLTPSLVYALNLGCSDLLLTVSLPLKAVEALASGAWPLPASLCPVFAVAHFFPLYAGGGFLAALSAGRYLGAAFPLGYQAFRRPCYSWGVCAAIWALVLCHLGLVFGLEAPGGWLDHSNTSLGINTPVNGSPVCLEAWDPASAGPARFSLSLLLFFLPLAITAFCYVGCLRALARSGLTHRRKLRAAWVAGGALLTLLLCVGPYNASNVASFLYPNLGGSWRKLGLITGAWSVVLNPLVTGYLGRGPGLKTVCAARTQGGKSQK

Consider `Cc1cc(OCC2(C)COC2)cc(C)c1-c1cccc(COc2cc3c(cn2)[C@H]2[C@@H](C3)[C@@H]2C(=O)O)c1` (single isomer, unassigned) [Compound A-2], for which the solubility (usually the concentration that dissolves in the medium under given conditions) in “Solubility in PBS pH 7” came out at 118 µM (≈ 57.3 µg/mL). The results for the 50% effective concentration (EC50) at hGPR40 [1] (setting [4]) and on hGPR40 [1] (setting [5]) were 18 nM and 199 nM, respectively.

For the molecule `Cc1cc(OCC2(C)COC2)cc(C)c1-c1ccc(F)c(COc2cc3c(cn2)[C@H]2[C@@H](C3)[C@@H]2C(=O)O)c1` (single isomer, unassigned) [Compound A-3], the affinity in data set [2], expressed as Ki, was 40200 nM. For the same molecule, in “Solubility in PBS pH 7”, the solubility came out at 107 µM (≈ 53.9 µg/mL). Also, the EC50 (in general, the concentration needed to bring the measured effect to its halfway point) stood at 9 nM on hGPR40 [1] (setting [4]) and 81 nM at hGPR40 [1] (setting [5]).

Take `Cc1cc(CCCC(C)(C)O)cc(C)c1-c1ccc(F)c(COc2cc3c(cn2)[C@H]2[C@@H](C3)[C@@H]2C(=O)O)c1` (single isomer, unassigned) [Compound A-4]: the inhibitory constant (Ki) (as a rule, a dissociation constant, usually derived from enzyme kinetics or from competition with a known ligand) in data set [2] stood at 7500 nM. Also, in the data set “Solubility in PBS pH 7”, the concentration in solution (solubility) came to 143 µM (≈ 72 µg/mL). In addition, the results for the EC50 at hGPR40 [1] (setting [4]) and on hGPR40 [1] (setting [5]) were 5 nM and 124 nM, respectively.

In the case of `Cc1nc(N2CCC(NS(C)(=O)=O)C2)ccc1-c1ccc(F)c(COc2cc3c(cn2)C2C(C3)C2C(=O)O)c1` (stereo not drawn) [Compound 31-12, 3-((2-fluoro-5-(2-methyl-6-(3-(methylsulfonamido)-pyrrolidin-1-yl)pyridin-3-yl)benzyl)oxy)-5,5a,6,6a-tetrahydrocyclopropa[4,5]cyclopenta[1,2-c]pyridine-6-carboxylic acid], the half-maximal effective concentration (EC50) at hGPR40 [1] (setting [6]) came out at 51 nM; on hGPR40 [3], 44 nM.

In the case of `Cc1nc(N2CCN(S(C)(=O)=O)CC2)ccc1-c1ccc(F)c(COc2cc3c(cn2)[C@H]2[C@@H](C3)[C@@H]2C(=O)O)c1` [Compound 31-13, (5aR,6S,6aS)-3-((2-fluoro-5-(2-methyl-6-(4-(methylsulfonyl)piperazin-1-yl)pyridin-3-yl)benzyl)oxy)-5,5a,6,6a-tetrahydrocyclopropa[4,5]cyclopenta[1,2-c]pyridine-6-carboxylic acid], the values for the EC50 at hGPR40 [1] (setting [6]) and at hGPR40 [3] were 32 nM and 69 nM, respectively.

Consider `CCc1nc2ccc(F)c(F)c2n1-c1cccc(COc2cc3c(cn2)[C@H]2[C@@H](C3)[C@@H]2C(=O)O)c1C` [Compound 32-9, (5aR,6S,6aS)-3-((3-(2-ethyl-6,7-difluoro-1H-benzo[d]imidazol-1-yl)-2-methylbenzyl)oxy)-5,5a,6,6a-tetrahydrocyclopropa[4,5]cyclopenta[1,2-c]pyridine-6-carboxylic acid], for which the EC50 came out at 4.9 nM on hGPR40 [1] (setting [6]) and 30 nM at hGPR40 [3].

As for `Cc1cccc(C)c1-c1cccc(COc2cc3c(cn2)[C@H]2[C@@H](C3)[C@@H]2C(=O)O)c1C` [Compound A-1], the inhibitory constant (Ki) in data set [2] worked out at 40000 nM. The same molecule yielded a solubility in the data set “Solubility in PBS pH 7” of 73 µM (≈ 29.2 µg/mL). In addition, the EC50 stood at 6 nM at hGPR40 [1] (setting [4]) and 81 nM at hGPR40 [1] (setting [5]).

In data set [2], `Cc1cccc(C)c1-c1cccc(COc2ccc3c(c2)C[C@H]2[C@H](C(=O)O)[C@@H]32)c1C` [Compound B-1, reference compound] registered an inhibition constant (Ki) of 6000 nM. In addition, the solubility in “Solubility in PBS pH 7” was determined as 56 µM (≈ 22.3 µg/mL). In addition, the EC50 on hGPR40 [1] (setting [4]) worked out at 69 nM; at hGPR40 [1] (setting [5]) it was 322 nM.

For the molecule `Cc1cc(OCC2(C)COC2)cc(C)c1-c1cccc(COc2ccc3c(c2)C[C@H]2[C@H](C(=O)O)[C@@H]32)c1` [Compound B-2, reference compound], the Ki in data set [2] was 8600 nM. In addition, the solubility in “Solubility in PBS pH 7” was 21 µM (≈ 10.2 µg/mL). In addition, the 50% effective concentration (EC50) amounted to 70 nM at hGPR40 [1] (setting [4]) and 816 nM at hGPR40 [1] (setting [5]).

The molecule `Cc1cc(OCC2(C)COC2)cc(C)c1-c1ccc(F)c(COc2ccc3c(c2)C[C@H]2[C@H](C(=O)O)[C@@H]32)c1` [Compound B-3, reference compound] showed a Ki in data set [2] of 7800 nM. For the same molecule, in the data set “Solubility in PBS pH 7”, the concentration in solution (solubility) came to 49 µM (≈ 24.6 µg/mL). Also, the EC50 on hGPR40 [1] (setting [4]) stood at 31 nM; on hGPR40 [1] (setting [5]), 286 nM.

In the data set “Solubility in PBS pH 7”, `Cc1cc(CCCC(C)(C)O)cc(C)c1-c1ccc(F)c(COc2ccc3c(c2)C[C@H]2[C@H](C(=O)O)[C@@H]32)c1` [Compound B-4, reference compound] showed a solubility of 66 µM (≈ 33.2 µg/mL). The EC50 turned out to be 100 nM at hGPR40 [1] (setting [4]) and 348 nM at hGPR40 [1] (setting [5]).
